For six compounds, IC50 results are on record in BindingDB's records for doi:10.1016/j.jmb.2008.04.054 (Gilead Sciences, 2008).

The target of this experiment is T1, Gag-Pol polyprotein [1148-1435] (Human immunodeficiency virus 1, UniProt P04585).
T1 construct: 1148-1435
The experiment in a line: Integrase 3-End Joining Assay. The note with it: pH 7.3; 22 °C. On the procedure: In the 3-end joining assay, the biotinylated donor DNA was bound to streptavidin-coated plates, and integrase was added to each well to allow processing of the donor DNA. Serially diluted compounds and DIG-tagged target DNA were then added to each well, and 3-end joining reaction was allowed to proceed for 30 min. Signal was detected using horseradishperoxidase-conjugated anti-Digoxin antibody through chemiluminescence measurement.
In turn, `COc1c2c(c(O)c3ncccc13)C(=O)N(Cc1ccc(F)cc1)C2` came in with a concentration for half-maximal inhibition (IC50) of 0.06 µM.

As to `O=C(NCc1ccc(F)cc1)c1nc(N2CCCCS2(=O)=O)c2cccnc2c1O` [5-(1,1-dioxo-1,2-thiazinan-2-yl)-N-[(4-fluorophenyl)methyl]-8-hydroxy-1,6-naphthyridine-7-carboxamide], half-maximal inhibition (IC50) was put at 0.044 µM.

Compound `CC[C@H](CO)n1cc(C(=O)O)c(=O)c2cc(Cc3cccc(Cl)c3F)ccc21` [6-[(3-chloro-2-fluorophenyl)methyl]-1-[(2R)-1-hydroxybutan-2-yl]-4-oxo-1,4-dihydroquinoline-3-carboxylic acid] returned a 50% inhibitory concentration (IC50) of 0.042 µM.

Regarding `COc1c2c(c(OC)c3ncccc13)C(=O)N(Cc1ccc(F)cc1)C2` [7-[(4-fluorophenyl)methyl]-5,9-dimethoxy-6H,7H,8H-pyrrolo[3,4-g]quinolin-8-one], the IC50 is greater than 1000 µM.

Take `COc1c2c(cc3ncccc13)C(=O)N(Cc1ccc(F)cc1)C2` [7-[(4-fluorophenyl)methyl]-5-methoxy-6H,7H,8H-pyrrolo[3,4-g]quinolin-8-one]: inhibition was half-maximal at 24 µM (IC50).

With `O=C(O)C(=O)CC(=O)c1cccc(Cc2ccccc2)c1` [(2Z)-4-(3-benzylphenyl)-2-hydroxy-4-oxobut-2-enoic acid], half-maximal inhibition (IC50) required 0.026 µM.

As a reminder, the IC50 is the point on the concentration scale where inhibition reaches its midpoint. Read a low IC50 as higher potency.
